Data set [1] is described as follows: Hygroscopicity by dynamic vapor sorption (DVS). It is filed as physicochemical. As for the experimental part:
Dynamic vapor sorption (DVS) curves were created using DVS Intrinsic of SMS (Surface Measurement Systems). The relative humidity at 25° C. was corrected by the deliquescence points of LiCl, Mg (NO3)2, and KCl.

A short description of data set [2]: Solid-state stability (HPLC purity, XRPD crystal form). It is filed as physicochemical. As for the experimental part:
For the solid samples separated under different conditions, the chemical stability was evaluated by determining purity using the HPLC method, and the physical stability was evaluated by determining the crystal form using the XRPD test.

Data set [3] is described as follows: Equilibrium solubility in water. It is filed as physicochemical. To be noted: for Crystal form transformation: XRPD of solid after 24 hours equilibrium in water; for pH: supernatant after 24 hours equilibrium in water. As for the experimental part:
As a comparison, the equilibrium solubility was also tested under the same conditions for crystal form C sample (prepared in Example 11), crystal form D sample (prepared in Example 12), and crystal form F sample (prepared in Example 13). The suspension of each crystal form (˜10 mg/mL) was prepared in the test, magnetically stirred at room temperature for 24 hours (rotating speed˜800 rpm) and then centrifuged (10000 rpm, 5 min). The solubility and pH were determined for the supernatant after filtration ([…] PTFE filter membrane) and XRPD (transmission) for the solid.

The test system of data set [4] is α receptor in rabbit vascular smooth muscle. The data set can be described thus: Antagonism of norepinephrine cumulative contraction of rabbit aorta. It is filed as cell-based. How it is done:
(§1) After anesthetizing the rabbit, its chest was quickly cut open. The descending aorta, connective tissues, and surrounding adipose tissues were removed (if the serotonin receptor antagonistic test was carried out, a smooth stainless steel rod was used to remove the endothelial cells), and the aorta was cut into 3-5 mm vascular rings. Then, the steel wire hook was passed through the vascular ring, with one end fixed on the ventilation hook and the other end connected to the tension transducer and placed in a bath tube containing 20 ml of nutrient solution. The change in tension was recorded. The temperature was maintained in the bath tube at 37±0.5° C., and a mixed gas (95% O2+5% CO2) was introduced at the rate of 1-2 bubbles per second. The initial load of the specimen was 1.5 g. The nutrient solution was changed every 20 min, balanced for 2 h, and the test was started after the baseline became stable.
After the specimen tension became stable, a waveform was recorded and norepinephrine added cumulatively in the bath tube (10^−8˜6×10^−5 mol/L) until reaching the maximum response, and then, the waveform was recorded again. […]
After the specimen tension became stable, a waveform was recorded and norepinephrine added cumulatively in the bath tube (10^−8˜3×10^−3 mol/L) until reaching the maximum response, and then, the waveform was recorded. […]

The subject of data set [5] is 5-hydroxytryptamine (5-HT) receptor in rabbit vascular smooth muscle. In words: Antagonism of 5-HT cumulative contraction of rabbit aorta. In kind it is cell-based. As for the experimental part: as §1
After the specimen tension became stable, the waveform was recorded and 5-HT added cumulatively in the bath tube (10^−7˜3×10^−4 mol/L) until reaching the maximum response, and the waveform was recorded again. […]
After the specimen tension became stable, a waveform was recorded and 5-HT cumulatively added in the bath tube (10^−7˜3×10^−4 mol/L) until reaching the maximum response, and the waveform was recorded again. […]

The subject of data set [6] is isolated rabbit vascular smooth muscle contraction induced by spasmodic agent AD. In words: Relaxation of isolated rabbit vascular smooth muscle contraction induced by spasmodic agent AD. To be noted: Oryctolagus cuniculus; adrenaline hydrochloride 10^−5 mol/L; X7 1×10^−9˜1×10^−6 mol/L; read-out: −logEC50 to relax the rabbit aorta contraction by AD (converted). It is filed as cell-based. How it is done: as §1, with “The initial load of the specimen was 1.5 g. The nutrient solution was changed every 20 min, balanced for 2 h, and the test was started after the baseline became stable.” left out
After the specimen tension became stable, a waveform was recorded, the spasmodic agent adrenaline hydrochloride (AD) (10^−5 mol/L) was added in the bath tube to induce contraction. […] When the maximum response of the next contraction was basically the same as that of the previous one, the prepared X7 solution (1×10^−9˜1×10^−6 mol/L) was added, and the waveform recorded. With the maximum relaxation response of X7 as 100%, the relaxation percentage of X7 at each concentration was calculated and the dose-effect curve plotted using the relaxation percentage of X7 as the vertical coordinate and the logarithm of each concentration as the horizontal coordinate. […]

The mark [7] stands for this setting: 3 conditions: sealed 80° C. 1 day, open 25° C./60% RH and 40° C./75% RH 1 week, hydrochloride.
Where [8] appears, read: room temperature, hydrochloride.
The mark [9] stands for this setting: equilibrium solubility in water, room temperature, 24 hours, hydrochloride.

Here are results for eight molecules from patent US12630545B2, “Crystal of compound X7 hydrochloride and its preparation method and application” (ORxes Therapeutics Co., Ltd., priority 2020, dated 2026).

“Also recorded” adds a separate entry of the source. Structures can show the parent of a compound that is named as a salt.

As for `c1ccc2c(c1)nnn2CCCCN1CCN(c2nsc3ccccc23)CC1` [Crystal form A, 3-(4-(4-(1H-benzotriazol-1-yl)butyl)piperazin-1-yl) benzoisothiazole hydrochloride], the “crystal form transformation after the DVS test” value in data set [1] (25° C.) is “no crystal form transformation”. Besides, in data set [1] (25° C./80% RH), the “water absorbed (DVS)” value is reported as 0.08%. In addition, the hygroscopicity entry in data set [1] (DVS, 25° C./80% RH, China Pharmacopoeia 2015 guide) is on record as “no hygroscopicity”. Besides, in data set [2] (setting [7]), the “chemical purity change (chemical stability, HPLC)” value is “does not undergo crystal form transformation and chemical purity reduction; also recorded: no crystal form transformation or reduction of HPLC purity”; the “crystal form transformation (physical stability, XRPD)” value is recorded as “does not undergo crystal form transformation; also recorded: no crystal form transformation”. In data set [3] (hydrochloride), the Crystal form transformation result is given as “No”. For the same molecule, the Crystal form transformation result in data set [3] (listed as crystal form A, hydrochloride) is listed as “remained unchanged”. Besides, the pH in data set [3] (setting [8]) is reported as 4.6. The solubility at 24 h in data set [3] (water, thermodynamic from solid, equilibrium solubility in water, room temperature, 24 hours) amounted to 3800 µg/mL.

Take `c1ccc2c(c1)nnn2CCCCN1CCN(c2nsc3ccccc23)CC1` [Crystal form B, 3-(4-(4-(1H-benzotriazol-1-yl)butyl)piperazin-1-yl) benzoisothiazole hydrochloride]: in data set [1] (adsorption process, 95% RH, 25° C.), the “water absorption (DVS)” value was 12.5%. Moreover, the “water absorbed (DVS)” value in data set [1] (desorption process, 30% RH, 25° C.) is 0.4%; in data set [1] (desorption process, 50% RH, 25° C.), 12.3%. The “chemical purity change (chemical stability, HPLC)” value in data set [2] (setting [7]) was “does not decrease”. In addition, the HPLC purity change result in data set [2] (open container, 25° C./60% RH, 1 week) is reported as “no change in crystal form or HPLC purity”. The “crystal form change (physical stability, XRPD)” value in data set [2] (open container, 25° C./60% RH, 1 week, hydrochloride) is reported as “no change in crystal form”; in data set [2] (open container, 25° C./60% RH, 1 week, listed as crystal form B, hydrochloride), “remains unchanged”. Further, the Crystal form transformation result in data set [3] (hydrochloride) is “No”; in data set [3] (listed as crystal form B, hydrochloride), “remained unchanged”. In addition, the Solubility in data set [3] (setting [9]) came to 3400 µg/mL. Besides, in data set [3] (setting [8]), the pH turned out to be 4.9.

For `c1ccc2c(c1)nnn2CCCCN1CCN(c2nsc3ccccc23)CC1` [Crystal form C, 3-(4-(4-(1H-benzotriazol-1-yl)butyl)piperazin-1-yl) benzoisothiazole hydrochloride], the Crystal form transformation result in data set [3] (hydrochloride) is given as “transformed into crystal form B”. The molecule further yielded a Solubility in data set [3] (setting [9]) of 3300 µg/mL. The pH in data set [3] (setting [8]) came to 4.9.

`c1ccc2c(c1)nnn2CCCCN1CCN(c2nsc3ccccc23)CC1` [Crystal form D, 3-(4-(4-(1H-benzotriazol-1-yl)butyl)piperazin-1-yl) benzoisothiazole hydrochloride]: the Crystal form transformation entry in data set [3] (listed as 0, hydrochloride) is “transformed into crystal form B”. This molecule also displayed a Solubility in data set [3] (setting [9]) of 3100 µg/mL. Besides, the pH in data set [3] (setting [8]) came to 4.9.

For `c1ccc2c(c1)nnn2CCCCN1CCN(c2nsc3ccccc23)CC1` [Crystal form F, 3-(4-(4-(1H-benzotriazol-1-yl)butyl)piperazin-1-yl) benzoisothiazole hydrochloride], the Crystal form transformation entry in data set [3] (hydrochloride) is given as “transformed into crystal form B”. Further, the Solubility in data set [3] (setting [9]) was 2900 µg/mL. The molecule further returned a pH in data set [3] (setting [8]) of 4.7.

For `c1ccc2c(c1)nnn2CCCCN1CCN(c2nsc3ccccc23)CC1` [X7, 3-(4-(4-(1H-benzotriazol-1-yl)butyl)piperazin-1-yl) benzoisothiazole hydrochloride], the “PA2 to resist rabbit aorta contraction by norepinephrine” value in data set [4] (X7 3×10^−8 mol/L) stood at 7.98±0.04. The “PA2 to resist rabbit aorta contraction by 5HT” value in data set [5] (X7 10^−7 mol/L, endothelium removed) worked out at 8.86±0.14. The EC50 in data set [6] is 8.51 nM.

Consider `COc1cc2nc(N3CCN(C(=O)C4COc5ccccc5O4)CC3)nc(N)c2cc1OC` (stereo not shown) [doxazosin, reference compound], for which the “PA2 to resist rabbit aorta contraction by NA” value in data set [4] (doxazosin 10^−7 mol/L) was found to be 7.83±0.05.

As for `COc1cccc(CCc2ccccc2OCC(CN(C)C)OC(=O)CCC(=O)O)c1` (stereo not shown) [sarpogrelate, reference compound], the “PA2 to resist rabbit aorta contraction by 5-HT” value in data set [5] (sarpogrelate 10^−6 mol/L) is reported as 7.21±0.08.

As usually defined, the solubility is the dissolved amount per volume that the medium holds. Lower therefore signals a poorly soluble substance. Broadly, the Solubility is the concentration that dissolves in the medium under given conditions. Read a low Solubility as a poorly soluble substance.
